# In patent US5512269A, “Method of treating retained pulmonary secretions” (priority 1993, dated 1996):
# Columns and labels:
# [1] = system: Mycobacterium tuberculosis 57778; assay type: cell-based; conditions: for susceptibility of strain 57778 to drug: streptomycin 6 μg/ml, isoniazid 0.2 μg/ml, rifampin 2 μg/ml, ethambutol 7.5 μg/ml
# [2] = system: Mycobacterium tuberculosis 63169; assay type: cell-based; conditions: for susceptibility of strain 63169 to drug: streptomycin 6 μg/ml, isoniazid 0.2 μg/ml, rifampin 2 μg/ml, ethambutol 7.5 μg/ml
# [3] = system: Mycobacterium tuberculosis 65021; assay type: cell-based; conditions: for susceptibility of strain 65021 to drug: streptomycin 6 μg/ml, isoniazid 0.2 μg/ml, rifampin 2 μg/ml, ethambutol 7.5 μg/ml
# [4] = system: Mycobacterium tuberculosis drug sensitive laboratory strain; assay type: cell-based; conditions: for susceptibility of drug-sensitive laboratory strain to drug: streptomycin 6 μg/ml, isoniazid 0.2 μg/ml, rifampin 2 μg/ml, ethambutol 7.5 μg/ml
# normal airway epithelium = experiment: Ussing chamber short circuit current (Isc) Cl- secretory response, normal airway epithelium primary cultures; assay type: cell-based, human
# CF airway epithelium = conditions: 10^-6 M
# Description: 1. Ussing Chamber Studies: The Cl^- secretory response to stimulation of normal and CF airway epithelium was studied under short circuit (Isc) conditions employing tissues mounted in Ussing chambers. Ussing chambers are well known in the art and the manner of their use in the present example would be readily apparent to one skilled in the art.
# [5] = system: CFT43 cell line (intracellular cAMP); conditions: CFT43 cells, duramycin stimulation
# Description: (§1) 4. Mechanisms of Action: Preliminary studies were also done investigating possible mechanisms of action.
# [6] = system: CFT43 cell line (phospholipase C, inositol phosphates); conditions: CFT43 cells, duramycin stimulation
# Description: as §1
# [7] = system: canine trachea airway surface liquid; conditions: dog
# Procedure: 1. The Animal Model: The model developed employed 30 kg male dogs that were anesthetized with intravenous pentobarbital and maintained on a intravenous infusion of normal saline at 75 cc/hour. The dogs were intubated. Ventilatory support was provided by a Harvard™ piston pump. Adequate ventilation and oxygenation were documented by arterial blood gas studies. Peak airway pressures (PAP) were measured and continuous monitoring of hemoglobin saturation was accomplished by pulse oximetry.
# Drug and vehicle were delivered through the endotracheal tube. The drug was nebulized employing a Pulmo-Aid™ Compressor and a DeVilbiss™ nebulizer. The drug (50 μM; 3 ml) in a saline vehicle or the saline vehicle alone (control) was nebulized for 6 minutes during which 0.7 ml thereof was delivered to the animal. […] After 6 minutes, a clean and dry nebulizer was exchanged for the test nebulizer containing the drug or vehicle. The investigators were blinded as to whether drug or vehicle was given.
# 2. Measurements of airway fluid: Airway liquid measurements were made by applying dry preweighed filter paper to the cartilaginous portions of the airway for 20 seconds. This was accomplished employing transbronchial biopsy forceps to grasp the papers. The forceps and papers were stored in plastic catheters. Sampling the airway liquid was accomplished by first inserting the bronchoscope through the endotracheal tube. Care was taken not to allow contact between mucosa and the bronchoscope. The catheter containing the biopsy forceps and filter papers was introduced into the airway lumen through the channel in the bronchoscope. The biopsy forceps were then pushed out of the catheter and the filter papers gently applied to the mucosa. After 20 seconds the biopsy forceps and filter papers were pulled back into the catheter and removed through the bronchoscope for weighing. The filter papers were accessed for weighing by again pushing the forceps holding the filter paper out of the catheter. In order to account for evaporative losses from the filter papers when exposed to room air, the time required to place the papers on the scales and perform the initial weighing was recorded. Three subsequent weighings over time were then made. A regression line was calculated. The weight of the filter papers at time zero, that is when they were maximally wet, was defined as the time when the filter papers were pushed out of the catheter after having been applied to the airway mucosa. The amount of fluid on the filter paper was taken as the difference between the dry weight of the papers and their weight at time zero. Each set of samples to be compared were further corrected for differences in the initial weight of the dry filter papers.
# The goal of the first protocol was to study the effects on airway surfaces liquid of (1) repeatedly sampling the airway, and (2) nebulizing the normal saline vehicle.
# Protocol 1 required, immediately prior to conducting the test studies, weighing and loading the filter papers into catheters. Ten separate catheter-forceps-filter paper set-ups were available. Ten measurements of airway liquid were then made in different areas of the trachea over a thirty-minute period, with measurements made at three minute intervals. The catheters were then reloaded and the saline vehicle nebulized onto the airway. Ten more measurements of airway surface liquid were then made over another thirty minute period.
# Protocol 2 required sampling the airway every four minutes to obtain 30 measurements of airway liquid. This required reloading the 10 catheters twice during each experiment. Each reloading required 20 minutes. This protocol allowed the airway to be sampled over 160 minutes. Drug and vehicle administration were separated by one week in any one animal.
# [8] = system: sheep airway surface liquid; conditions: sheep model, W. Mentz et al.; cited from earlier work
molecule,measurement,setting,value
CO[C@H]1/C=C/O[C@@]2(C)Oc3c(C)c(O)c4c(O)c(c(/C=N/N5CCN(C)CC5)c(O)c4c3C2=O)NC(=O)/C(C)=C\C=C\[C@H](C)[C@H](O)[C@@H](C)[C@@H](O)[C@@H](C)[C@H](OC(C)=O)[C@@H]1C [rifampin],susceptibility of strain 57778 to drug,[1],resistant
same,susceptibility of strain 63169 to drug,[2],resistant
same,susceptibility of strain 65021 to drug,[3],resistant
same,susceptibility of drug-sensitive laboratory strain to drug,[4],sensitive
CC[C@@H](CO)NCCN[C@@H](CC)CO [ethambutol],susceptibility of strain 57778 to drug,[1],sensitive
same,susceptibility of strain 63169 to drug,[2],sensitive
same,susceptibility of strain 65021 to drug,[3],partially resistant
same,susceptibility of drug-sensitive laboratory strain to drug,[4],sensitive
duramycin,peak Isc (Cl- current) after duramycin,"normal airway epithelium; 10^-6 M duramycin, normal tissues after amiloride and forskolin (10 μM), baseline 20 μA/cm^2 after amiloride",50 μA/cm^2
same,Cl- secretory response in normal tissue,"normal airway epithelium; 10^-6 M, seven normal tissues",significant Cl^- secretory response
same,"Isc response to duramycin, control bathing solution","normal airway epithelium; 10^-6 M, solution containing both Na+ and Cl-",responded by increasing the Isc
same,"Isc response to duramycin, Cl- free bathing solution","normal airway epithelium; 10^-6 M, solution without Cl-",markedly attenuated response
same,"Isc response to duramycin, Na+ free bathing solution","normal airway epithelium; 10^-6 M, solution without Na+",responded by increasing the Isc
same,concentration giving maximal response,normal airway epithelium; dose response study,10^-6 M
same,ED50,"normal airway epithelium; dose response study, Isc response",300 nM
same,duration of increase in Isc (Cl- secretory response),normal airway epithelium; in some instances,> 1 h
same,Cl- secretory response (change in Isc) in CF tissue relative to normal tissue,CF airway epithelium,approximately twice
same,Cl- secretory response in CF tissue,CF airway epithelium; five CF tissues,significant Cl^- secretory response
same,intracellular cAMP levels,[5],did not cause intracellular cAMP levels to rise
same,inositol phosphates (IPs) produced,[6],no detectable amounts of IPs
same,"increase in amount of fluid recovered over baseline, Protocol 2","[7]; 160 minutes, vehicle first then duramycin one week later",several-fold increase
same,return of airway surface liquid to baseline,[7]; Protocol 1,did not return to baseline even two hours following its administration
same,surface airway liquid after vehicle one week following duramycin,"[7]; Protocol 2, duramycin given first",remained elevated
same,"amount of fluid recovered from the airway, Protocol 1","[7]; nebulized duramycin, 30 minute measurement period",marked and sustained increase
same,increase in airway surface liquid recovered compared to vehicle controls,"[7]; vehicle first, p=0.0179 (paired), p=0.0335 (unpaired), n=6",significant
same,average change in amount of fluid recovered,[7]; versus vehicle,doubling
same,"activity on growth (growth index over 12 days), strain 57778",[1]; 100 μM duramycin,equally as effective as ethambutol
same,"activity on growth (growth index over 12 days), strain 63169",[2]; 100 μM duramycin,approximately equal to that of the two drugs now known to be effective against this strain
same,"activity on growth (growth index over 12 days), strain 65021",[3]; 100 μM duramycin,significantly more activity against this strain than any of the four traditional anti-tuberculosis drugs tested
same,"activity on growth (growth index over 12 days), drug-sensitive laboratory strain",[4]; 100 μM duramycin,"less active in vitro than streptomycin, isoniazid, rifampin, or ethambutol"
"Nc1ncnc2c1ncn2[C@@H]1O[C@H](COP(=O)(O)OP(=O)(O)OP(=O)(O)O)[C@@H](O)[C@H]1O [ATP, reference compound]",time course of Cl- secretory response (Isc),normal airway epithelium; comparison agonist,rapid onset of action and a rapid return to the baseline current
NNC(=O)c1ccncc1 [isoniazid],susceptibility of strain 57778 to drug,[1],resistant
same,susceptibility of strain 63169 to drug,[2],resistant
same,susceptibility of strain 65021 to drug,[3],resistant
same,susceptibility of drug-sensitive laboratory strain to drug,[4],sensitive
[H]/N=C(/N)N[C@H]1[C@H](O)[C@@H](O)[C@H](O[C@@H]2O[C@@H](C)[C@](O)(C=O)[C@H]2O[C@@H]2O[C@@H](CO)[C@H](O)[C@@H](O)[C@@H]2NC)[C@@H](N/C(N)=N\[H])[C@@H]1O [streptomycin],susceptibility of strain 57778 to drug,[1],resistant
same,susceptibility of strain 63169 to drug,[2],sensitive
same,susceptibility of strain 65021 to drug,[3],resistant
same,susceptibility of drug-sensitive laboratory strain to drug,[4],sensitive
N=C(N)NC(=O)c1nc(Cl)c(N)nc1N [amiloride],increase in airway fluid after amiloride treatment,[8],~50%
